Laboratory results taken from publication PMC9268102, “Design, Synthesis and Biological Evaluation of 1,3,5-Triazine Derivatives Targeting hA1 and hA3 Adenosine Receptor” (Molecules, 2022).

Columns and labels:
Type in all cases: cell-based
A549 cells [1] = test: Mitochondrial membrane potential by TMRM flow cytometry; settings: 48 h, control 93.8%
Method: ROS-induced oxidative stress can cause the rapid depolarization of the inner mitochondrial membrane potential (ΔΨm) and, as a result, impairment of oxidative phosphorylation. Using tetramethylrhodamine methyl ester (TMRM) measurements, we investigated how mitochondrial membrane potential was affected by 9c. A549 cells were exposed to 9c following incubation with TMRM. Afterward, flow cytometry was employed to calculate the intensity of TMRM binding in the healthy membrane.
A549 cells were incubated with a fluorescent indicator, specifically 100 nM tetramethylrhodamine methyl ester perchlorate (TMRM, Thermo Fisher Scientific, Waltham, MA, USA), to determine the mitochondrial membrane potential. The A549 cells treated with the compound were harvested after 48 h, washed in PBS, and re-suspended in FACS buffer (PBS supplemented with 2 percent fetal bovine serum). A flow cytometer (BD FACSVerse, BD Biosciences, San Jose, CA, USA) and the FlowJo software (FlowJo LLC, Ashland, OR, USA) were used to analyze the cells. […] Intracellular fluorescence measurements involved the use of a flow cytometer (BD FACSVerse, BD Biosciences, San Jose, CA, USA) and the FlowJo software (Version 10, TreeStar, Ashland, OR, USA).

A549 cells [2] = test: Live-dead assay (calcein/EthD-1) by flow cytometry; settings: 48 h
Method: A live cell assay and a dead cell assay were carried out using a mixture of two fluorescent dyes: calcein (green dye for live cells) and ethidium homodimer-1 (EthD-1, red dye for dead cells). The cells were washed and stained with calcein and EthD-1 before conducting imaging fluorescence microscopy and flow cytometry experiments. When treated with 20 μM 9c, we observed a drastic decrease in the number of live cells (green) and a slight increase in the number of dead cells (red).
The A549 cells were seeded in 6-well plates at a density of 1 × 10^6 cells per well, and the cells underwent treatment with the compound (20 and 40 μM) for 48 h. The A549 cells were analyzed using fluorescent dyes for both living and dead cells with the LIVE/DEAD kit (Thermo Fisher Scientific, Waltham, MA, USA). For cell staining, we used EthD-1 and calcein by referring to the manufacturer’s instructions. Images were captured with an EVOS M5000 Imaging System (Thermo Fisher Scientific Inc., Waltham, MA, USA).

A549 cells [3] = test: Intracellular ROS by H2DCF-DA flow cytometry; settings: 48 h, control 1.26%
Excerpt: Although reactive oxygen species (ROS) play an important role in regulating normal cellular processes, abnormal ROS levels contribute to the development of a variety of human diseases, including cancer. Because of their accelerated metabolism, cancer cells have higher ROS levels than normal cells. Nevertheless, the high ROS content of cancer cells makes them more susceptible to oxidative stress-induced cell death, which can be used to target cancer cells selectively. Flow cytometry was used to determine whether 9c induces ROS generation in A549 cells by examining the results. The experiment was conducted with H2DCF-DA as a fluorescent probe. […] Next, we determined the effect of 9c in regulating mitochondrial ROS.
A549 cells were incubated with a fluorescent indicator, specifically 100 nM tetramethylrhodamine methyl ester perchlorate (TMRM, Thermo Fisher Scientific, Waltham, MA, USA), to determine the mitochondrial membrane potential. The A549 cells treated with the compound were harvested after 48 h, washed in PBS, and re-suspended in FACS buffer (PBS supplemented with 2 percent fetal bovine serum). […] Intracellular fluorescence measurements involved the use of a flow cytometer (BD FACSVerse, BD Biosciences, San Jose, CA, USA) and the FlowJo software (Version 10, TreeStar, Ashland, OR, USA).

Structure (SMILES): COc1cc(Nc2nc(N)nc(-c3ccc(O)cc3)n2)ccc1Cl [Compound 9c, 4-{4-amino-6-[(4-chloro-3-methoxyphenyl)amino]-1,3,5-triazin-2-yl}phenol]
- TMRM-positive intensity, TMRM (+) (A549 cells [1]; 20 μM): 74.6%
- TMRM-positive intensity, TMRM (+) (A549 cells [1]; 40 μM): 52.3%
- Dead cells (quadrant Q4) (A549 cells [2]; 20 μM): 34.4%
- Dead cells (quadrant Q4) (A549 cells [2]; 40 μM): 46.1%
- ROS level (H2DCF-DA positive) (A549 cells [3]; 20 μM): 7.31%
- ROS level (H2DCF-DA positive) (A549 cells [3]; 40 μM): 22.6%
